Assay: selective molecular separation (partitioning) of local anesthetics by a microemulsion having an electron deficient aromatic ring
Type: physicochemical
Details: microemulsion with electron deficient ring oil, e.g. 1,3 di(trifluoromethyl) benzene
Excerpt: In one embodiment, the materials and/or methods of the subject invention can be used to separate drugs of the same class. A specific embodiment involves separating local anesthetics. […] This is accomplished by exploiting differences in electron density in π electron orbitals.
In these molecules, the π electron orbitals are aligned at right angles to the planar surface of the benzene rings. Differences in substitution by the side chain in cocaine or bupivacaine cause either electron depletion (δ^+) or enrichment (δ^−). Such characteristics can be used to selectively separate these molecules.
According to the subject invention, any oil or “mating” molecule with a benzene ring is acceptable in providing a microemulsion system, as long as the substitutions are electron withdrawing from the benzene ring into the side chains. In this case, the electron deficient ring is a component of a molecule (e.g., 1,3 di(trifluoromethyl) benzene) that, at room and physiological temperatures, is an oil (FIG. 3). Thus, these oil molecules can be used to construct the lipid core of a microemulsion or may be added as solutes into the lipid core of a microemulsion wherein another oil serves as the lipid core.

CCCCN1CCCCC1C(=O)Nc1c(C)cccc1C (stereo not shown) [bupivacaine]
partitioning into the microemulsion (molecular separation, FIG. 4): selectively partition

From US7202282B2, “Microemulsions for selective molecular separation” (University of Florida, priority 2002, dated 2007)
